Series [1] can be described thus: pKa values for the FDA co-crystal criterion. The format is physicochemical. Conditions: approximated by comparison with Gefitinib and Erlotinib; read-out: pKa of the second less basic function. The text has this:
As further confirmation that the products of the present inventions are co-crystals and not simply salts, the criterion adopted by the FDA Guidelines of April 2013 (see below) is here reported: the active ingredient-excipient complex should be classified as co-crystal if ΔpKa of the two species is <1.

The conditions of series [2]: cited from earlier work.
Series [3] is described as follows: in vivo. Conditions: Wistar, rat, plasma, po, 30 mg/kg.
Text: (§1) Therefore, the absorption process was described by two parallel inputs processes. The first input characterized a fast-release component (with a ka1 rate of absorption) while the second input characterized a delayed release of the drug (with a ka2 rate of absorption). The fraction of the oral dose associated with the first absorption component was estimated by the F parameter, while the remaining fraction of the drug (1-F) was assumed to be released in the second absorption process. The F fraction of the dose was immediately release (lag1) while the release of the remaining (1-F) fraction occurred with an estimated lag time (lag2).
(§2) The disposition and elimination PK parameters of Lapatinib (k12, k21, k13, k31, and kel) for the different oral formulations were fixed to the ones estimated in the IV model due to the limited PK samples available for a proper characterization of these parameters after oral administration.
The nature of series [4]: Model-based PK analysis (NONMEM), oral administration, two parallel input processes. Conditions: for AUC0INF / Absolute Bioavail. / Cmax / MRTINF / Tmax: derived from PK modelling, oral.
Text: as §1, §2
Series [5] in a line: Model-based PK analysis (NONMEM), IV administration, three-compartment model. Conditions: Group 1.
A short description of series [6]: Intravenous bolus pharmacokinetics, non-compartmental analysis, 10 mg Lapatinib/kg. The format is in vivo. Conditions: Wistar, rat, plasma, male rats.
Experimental: (§3) A non-compartmental pharmacokinetic analysis was carried out with mean plasma concentration-time curves using WinNonlin® Professional Version 6.3 (Phoenix Version 1.3, Pharsight Corporation):
The conditions of series [7]: Tyverb EPAR; cited from earlier work.
Series [8] in a line: in vivo. Conditions: male, Wistar, rat, male rats; for bioavailability: F (absolute bioavailability), oral 30 mg/kg AUCt compared with iv 10 mg/kg; for AUC(0-t): AUCt; for Cmax: suspension in hydroxypropylmethylcellulose:Tween 80 in WFI, plasma Lapatinib; for MRT last: MRTt (mean residence time); for Vd/F: Vz/F.
Experimental: (§4) For the oral administration, the compounds were suspended in hydroxypropylmethylcellulose:Tween 80 (0.5%:0.1%) in WFI to reach a concentration of 3 mg parent compound/mL in all cases.
(§5) A bioanalytical UPLC®-MS/MS method was characterized and allowed the determination of the Lapatinib in rat plasma; the precision and accuracy of the QC samples was appropriate according to international guidelines.
as §3
(§6) For the preparation of the intravenous solution and the oral suspensions, the correction factor and the purity were applied for all compounds. Blood samples were collected from all animals at all scheduled time points.
(§7) The study samples were analyzed according to the following UPLC®-MS/MS method:
Series [9] can be described thus: in vivo. Conditions: Wistar, rat, plasma, iv, 10 mg/kg.
For series [10] the following is noted: male rats; for Cmax: suspension in hydroxypropylmethylcellulose:Tween 80 in WFI, plasma Lapatinib.
Experimental: as §4, §5, §3, §6, §7
For series [11] the following is noted: coformer acid; cited from earlier work.
Series [12] can be described thus: Stability at 74% RH at 40° C. (XRPD).
A short description of series [13]: Stability in water suspension followed by XRPD. The format is physicochemical. Conditions: 40 volumes of water, room temperature, XRPD at 1, 4 and 24 hours. As to the method: The three suspensions were stirred at room temperature in 40 volumes of water and the transformation of the product was followed by XRPD at 1 hour, 4 hours and 24 hours.
The mark [14] stands for this setting: plasma, po, 30 mg/kg, oral 30 mg/kg.
[15] abbreviates: listed as co-crystal Lapatinib monotosylate:caproic acid (1:2).
Setting [16] is: listed as co-crystal Lapatinib monotosylate:caprylic acid (1:2).

Counter-ions that a name gives are not always drawn. Like-named read-outs stand apart in the source and are kept apart here.
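For Cmax/AUCt (apparent absorption rate) in this document: parent drug in plasma quantified by UPLC-MS/MS, parameters derived by non-compartmental analysis of mean concentration-time curves, oral suspension at 3 mg/mL.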
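For F (absolute bioavailability) in this document: parent drug in plasma quantified by UPLC-MS/MS, parameters derived by non-compartmental analysis of mean concentration-time curves, oral suspension at 3 mg/mL.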
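For F in this document: parent drug in plasma quantified by UPLC-MS/MS, parameters derived by non-compartmental analysis of mean concentration-time curves, oral suspension at 3 mg/mL.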
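For t1/2app (apparent terminal elimination half-life) in this document: parent drug in plasma quantified by UPLC-MS/MS, parameters derived by non-compartmental analysis of mean concentration-time curves, oral suspension at 3 mg/mL.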

For `CS(=O)(=O)CCNCc1ccc(-c2ccc3ncnc(Nc4ccc(OCc5cccc(F)c5)c(Cl)c4)c3c2)o1` [Lapatinib], the pKa in [1] was roughly 5.4. The “increase of bioavailability when co-administered with a high fat meal” value in series [2] (compared with fasting conditions, Ratain and Cohen) was 325%. Also, in [2] (low solubility-good permeability, Custodio et al.), the “drug class (solubility/permeability)” value is listed as “Class II”.

With `CS(=O)(=O)CCNCc1ccc(-c2ccc3ncnc(Nc4ccc(OCc5cccc(F)c5)c(Cl)c4)c3c2)o1.Cc1ccc(S(=O)(=O)O)cc1` [Lapatinib ditosylate monohydrate, N-{3-chloro-4-[(3-fluorobenzyl)oxy]phenyl}-6-[5-({[2-(methylsulphonyl)ethyl]amino}methyl)furan-2-yl]quinazolin-4-amine bis(4-methylbenzenesulphonate)monohydrate, reference compound], in the series “in vivo [3]”, the AUC is 18400 ng·h/mL, the Cmax came out at 3510 ng/mL, the MRT inf was determined as 4.31 h and the Tmax came out at 2 h. In [4], the AUC0INF was 18400 ng·h/mL and the “Absolute Bioavail.” value worked out at 43.5%. Besides, the lag1 in [4] (oral model, first (immediate) release) was determined as 0. Moreover, in series [5] (IV model), the k12 amounted to 0.616, the k13 turned out to be 3.14, the k21 is 0.00202 and the k31 came to 1.47. In series [5] (IV model), this molecule showed a kel of 1.6 and a v of 0.358. In addition, in series [5] (derived from PK modelling, IV), the AUC0INF was determined as 14100 ng·h/mL and the T12 is listed as 176 h. For the same molecule, in series [6] (iv bolus 10 mg/kg in DMSO:PEG:WFI (10:40:50), read-out: C0 (extrapolated concentration at time 0)), the C0 was 20200 ng/mL. In [6] (iv bolus 10 mg/kg), this molecule returned an AUC(0-t) of 13700 ng·h/mL and an MRT last of 1.54 h. In series [7], the hygroscopicity result is “non-hygroscopic” and the “solubility in aqueous media” value is on record as “practically insoluble in aqueous media”. The molecule also registered a bioavailability in the series “in vivo [8]” (plasma, oral, 30 mg Lapatinib/kg) of 57.5%. In “in vivo [8]” (setting [14]), this molecule showed an AUC(0-t) of 23600 ng·h/mL, a CL/F of 21.2 mL/min/kg, a Cmax of 3520 ng/mL and an MRT last of 4.28 h. The Vd/F in the series “in vivo [8]” (setting [14]) stood at 4.38 L/kg. Besides, the half-life in “in vivo [8]” (plasma, po, 30 mg/kg, t1/2app (apparent terminal elimination half-life), oral 30 mg/kg) was 2.39 h. Besides, in the series “in vivo [9]”, the AUC worked out at 12300 ng·h/mL and the mean residence time MRT inf came out at 35.9 h. For the same molecule, in [10] (oral 30 mg/kg), the “Cmax/AUCt (apparent absorption rate)” value worked out at 0.149 h⁻¹.

As for `CCCCCCCC(=O)O` [caprylic acid], the pKa in series [11] was 4.91.

In the case of `CS(=O)(=O)CCNCc1ccc(-c2ccc3ncnc(Nc4ccc(OCc5cccc(F)c5)c(Cl)c4)c3c2)o1` [Form I, Lapatinib monotosylate:caproic acid (1:2)], in series [12], the “exposure time after which very small amounts of Lapatinib monotosylate Form M1 were detected by XRPD” value was 23 days and the “Lapatinib monotosylate observed in the co-crystal after 23 days” value is “a little amount”. Further, in series [4] (setting [15]), the AUC0INF was determined as 15000 ng·h/mL, the “Absolute Bioavail.” value came out at 35.5%, the Cmax was 3018.6 ng/mL and the MRTINF is 3.85 h. The Tmax in series [4] (setting [15]) amounted to 1.6 h. In “in vivo [8]” (setting [14]), this molecule gave an AUC(0-t) of 13300 ng·h/mL, a CL/F of 33.2 mL/min/kg, a Cmax of 3170 ng/mL and a Vd/F of 6.83 L/kg. The bioavailability in “in vivo [8]” (plasma, po, 30 mg/kg) was determined as 32.4%. Further, the Tmax in “in vivo [8]” (plasma, po, 30 mg/kg, tmax, oral 30 mg/kg) turned out to be 2 h.

Consider `CCCCCC(=O)O` [caproic acid], for which, in [11], the pKa is 4.8.

As to `CS(=O)(=O)CCNCc1ccc(-c2ccc3ncnc(Nc4ccc(OCc5cccc(F)c5)c(Cl)c4)c3c2)o1` [Form II, Lapatinib monotosylate:caprylic acid (1:2)], in series [12], the “exposure time after which very small amounts of Lapatinib monotosylate Form M1 were detected by XRPD” value was 60 days and the “Lapatinib monotosylate observed in the co-crystal after 23 days” value is given as “only traces”. The “stability in water suspension (XRPD finding)” value in series [13] was “recovering pure Form II after 24 hours”. Besides, in series [4] (setting [16]), the AUC0INF stood at 16700 ng·h/mL, the “Absolute Bioavail.” value is 39.5%, the Cmax is 2813.5 ng/mL and the MRTINF is 4.67 h. Moreover, the Tmax in [4] (setting [16]) came to 3 h. Besides, the bioavailability in “in vivo [8]” (in vivo, 30 mg Lapatinib/kg) is 50.7%. Also, in the series “in vivo [8]” (in vivo, po, 30 mg/kg, oral 30 mg/kg), the MRT last was 4.67 h. Further, in [10] (oral 30 mg/kg, 30 mg/kg), the Cmax is recorded as 2814 ng/mL, the AUCt was 20778 ng·h/mL and the Tmax is listed as 3 h.

Turning to `CS(=O)(=O)CCNCc1ccc(-c2ccc3ncnc(Nc4ccc(OCc5cccc(F)c5)c(Cl)c4)c3c2)o1` [Form III, Lapatinib monohydrochloride:adipic acid (1:1)], in series [10] (oral 30 mg/kg AUCt compared with iv 10 mg/kg), the “F (absolute bioavailability)” value worked out at 44.98%. In addition, in series [10] (oral 30 mg/kg, 30 mg/kg), the Cmax is given as 2567 ng/mL, the AUCt was 18433 ng·h/mL, the Tmax is reported as 3 h and the “t1/2app (apparent terminal elimination half-life)” value is reported as 3.13 h.

The pKa is the pH at which an ionisable group is half protonated. For orientation: AUC means the area under the concentration-time curve, a measure of exposure. As usually defined, the Cmax is the maximum level reached in the sampled fluid or tissue. By MRT inf is commonly meant the average time that molecules of a dose stay in the body. What is called Tmax is the time at which the peak concentration occurs. Usually AUC(0-t) stands for exposure summed from dosing to a finite time, without extrapolation to infinity. The term MRT last denotes a mean duration of stay, worked out from the concentration-time curve. Broadly, the bioavailability is the share of a dose that reaches the circulation, judged against a reference dose that is usually intravenous. Read a low bioavailability as poor availability. The term CL/F denotes clearance divided by bioavailability, as obtained after extravascular dosing. The term Vd/F denotes the apparent distribution volume after extravascular dosing. What is called half-life is the time needed for the level to fall by half in the phase considered.

The values above are taken from patent publication US20160096826A1, “CO-CRYSTALS OF LAPATINIB MONOACID SALTS” (priority 2014, published 2016).
